Data on 21 molecules can be found in US12110276B2 (Genentech, Inc., priority 2021, dated 2024).

For one experiment, the target named is TEAD4 (Homo sapiens (Human), UniProt Q15561). Briefly: TR-FRET lipid pocket probe competition assay (Lipid HTRF), TEAD4.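 Note: His-tagged TEAD4 with biotinylated lipid-pocket probe, read by Europium anti-His and XL665 streptavidin, where probe displacement lowers the TR-FRET signal, IC50 from a four-parameter fit.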 It is filed as binding. The conditions noted are these: 4 hours pre-incubation; read-out: Lipid HTRF TEAD4 IC50. In general terms: In TR-FRET formats the signal depends on donor and acceptor labels being close together.
TEAD4, sequence (Q15561 whole entry, species assumed): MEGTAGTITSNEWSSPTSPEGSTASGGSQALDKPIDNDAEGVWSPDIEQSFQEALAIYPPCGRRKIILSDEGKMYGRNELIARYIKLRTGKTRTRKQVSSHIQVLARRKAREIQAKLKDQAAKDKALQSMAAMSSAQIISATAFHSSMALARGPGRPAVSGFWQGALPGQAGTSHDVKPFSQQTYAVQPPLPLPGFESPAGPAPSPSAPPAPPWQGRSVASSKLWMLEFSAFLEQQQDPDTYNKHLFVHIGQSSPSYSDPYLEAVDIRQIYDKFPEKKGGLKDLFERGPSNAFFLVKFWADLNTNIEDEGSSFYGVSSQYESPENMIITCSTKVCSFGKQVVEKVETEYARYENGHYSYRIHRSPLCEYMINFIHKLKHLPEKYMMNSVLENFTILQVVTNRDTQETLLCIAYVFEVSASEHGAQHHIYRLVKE
Another experiment has as its target TEAD1 (Homo sapiens (Human), UniProt P28347). The experiment is described as follows: TR-FRET lipid pocket probe competition assay (Lipid HTRF), TEAD1.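 Note: His-tagged TEAD1 with biotinylated probe, detected via Europium anti-His and XL665 streptavidin, probe displacement lowers TR-FRET signal, IC50 from four-parameter nonlinear fit.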 Format: binding. Conditions: 4 hours pre-incubation; read-out: Lipid HTRF TEAD1 IC50.
A further experiment concerns the target TEAD2 (Homo sapiens (Human), UniProt Q15562).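 Note: TR-FRET competition assay with His-tagged TEAD protein and a biotinylated lipid pocket probe, compound pre-incubated 30 min or 4 h at room temperature, displacement lowers signal.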
The next experiment concerns the target TEAD3 (Homo sapiens (Human), UniProt Q99594). Briefly: TR-FRET lipid pocket probe competition assay (Lipid HTRF), TEAD3. Format: binding. The conditions noted are these: 4 hours pre-incubation; read-out: Lipid HTRF TEAD3 IC50.

TEAD3, sequence (Q99594 whole entry, species assumed): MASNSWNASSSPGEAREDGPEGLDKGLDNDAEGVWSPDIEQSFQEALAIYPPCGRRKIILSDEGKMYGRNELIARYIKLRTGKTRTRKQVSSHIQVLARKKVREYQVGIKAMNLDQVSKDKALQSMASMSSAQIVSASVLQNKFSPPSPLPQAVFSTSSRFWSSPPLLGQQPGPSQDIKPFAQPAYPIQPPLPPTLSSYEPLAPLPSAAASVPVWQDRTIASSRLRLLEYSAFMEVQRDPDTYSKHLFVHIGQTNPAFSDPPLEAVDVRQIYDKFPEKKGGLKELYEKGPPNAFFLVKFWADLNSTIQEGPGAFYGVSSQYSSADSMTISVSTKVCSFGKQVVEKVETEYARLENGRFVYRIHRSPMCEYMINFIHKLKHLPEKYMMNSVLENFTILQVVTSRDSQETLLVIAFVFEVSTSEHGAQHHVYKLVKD
TEAD2, sequence (Q15562 whole entry, species assumed): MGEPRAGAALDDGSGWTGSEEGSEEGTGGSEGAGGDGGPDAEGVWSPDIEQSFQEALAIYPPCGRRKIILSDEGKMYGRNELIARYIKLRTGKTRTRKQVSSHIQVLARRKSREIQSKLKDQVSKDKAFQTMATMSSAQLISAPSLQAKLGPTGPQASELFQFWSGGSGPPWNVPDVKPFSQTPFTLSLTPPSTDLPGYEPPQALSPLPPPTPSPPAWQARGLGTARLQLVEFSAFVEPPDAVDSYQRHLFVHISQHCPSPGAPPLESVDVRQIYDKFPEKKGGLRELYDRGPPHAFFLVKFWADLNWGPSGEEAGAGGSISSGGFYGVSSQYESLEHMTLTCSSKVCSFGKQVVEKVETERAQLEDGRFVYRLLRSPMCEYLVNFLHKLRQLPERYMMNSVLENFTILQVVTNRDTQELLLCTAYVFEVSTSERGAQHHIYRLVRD
TEAD1, sequence (P28347 whole entry, species assumed): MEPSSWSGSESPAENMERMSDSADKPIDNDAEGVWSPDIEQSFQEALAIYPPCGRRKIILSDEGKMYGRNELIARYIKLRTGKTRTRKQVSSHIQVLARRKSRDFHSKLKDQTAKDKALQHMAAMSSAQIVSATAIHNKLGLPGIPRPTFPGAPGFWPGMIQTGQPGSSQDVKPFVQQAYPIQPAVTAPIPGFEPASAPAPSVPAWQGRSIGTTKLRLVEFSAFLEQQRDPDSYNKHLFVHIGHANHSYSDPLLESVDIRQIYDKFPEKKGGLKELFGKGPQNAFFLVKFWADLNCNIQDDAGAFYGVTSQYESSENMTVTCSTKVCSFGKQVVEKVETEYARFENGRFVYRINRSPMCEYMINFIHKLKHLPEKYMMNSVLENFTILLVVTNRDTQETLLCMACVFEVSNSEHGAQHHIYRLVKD
Method for TEAD2: His-tagged TEAD proteins are pre-incubated with TEAD project compounds for 30 minutes or 4 hours at room temperature. Biotinylated lipid pocket probes are then added to the TEAD/Compound mixture and incubated for 60 minutes at room temperature. The lipid pocket probe competes with the test compound for the TEAD lipid pocket until equilibrium is reached. After 60 minutes, Europium labelled anti-His (Perkin Elmer #AD0110) and XL665 labelled streptavidin (CIS Bio 610SAXAC) are added to the TEAD/test compound/lipid pocket mixture and incubated for 30 minutes or 4 hours. TR-FRET values are then measured using an EnVision multi-label plate reader (Perkin Elmer Cat #2104-0010A.) If the lipid pocket probe binds to TEAD as expected, a TR-FRET signal results from the proximity of anti-His Eu and XL665. If a TEAD lipid pocket binder such as binds and displaces the lipid pocket probe, the disruption of the TEAD:probe interaction results in a decrease in TR-FRET signal. The potency of compounds as TEAD lipid pocket binders is determined by IC50 value generated using a non-linear 4 parameter curve fit.
Method for TEAD3: His-tagged TEAD proteins are pre-incubated with TEAD project compounds for 30 minutes or 4 hours at room temperature. Biotinylated lipid pocket probes are then added to the TEAD/Compound mixture and incubated for 60 minutes at room temperature. The lipid pocket probe competes with the test compound for the TEAD lipid pocket until equilibrium is reached. After 60 minutes, Europium labelled anti-His (Perkin Elmer #AD0110) and XL665 labelled streptavidin (CIS Bio 610SAXAC) are added to the TEAD/test compound/lipid pocket mixture and incubated for 30 minutes or 4 hours. […] If a TEAD lipid pocket binder such as binds and displaces the lipid pocket probe, the disruption of the TEAD:probe interaction results in a decrease in TR-FRET signal. The potency of compounds as TEAD lipid pocket binders is determined by IC50 value generated using a non-linear 4 parameter curve fit.

With `C=CC(=O)NCc1nn(-c2ccc(OC(F)(F)F)cc2)c2nccc([C@@H](O)CO)c12` (stereo in doubt) [Compound 16, N-((4-(1,2-dihydroxyethyl)-1-(4-(trifluoromethoxy)phenyl)-1H-pyrazolo[3,4-b]pyridin-3-yl)methyl)acrylamide], the IC50 (as a rule, the concentration needed to halve the response being measured) at TEAD4 stood at 61 nM; at TEAD1 it was 230 nM; on TEAD2, 120 nM; at TEAD3, 680 nM.

With `C=CC(=O)NCc1nn(-c2ccc(OC(F)(F)F)cc2)c2nccc(NC(=O)CO)c12` [Compound 24, N-((4-(2-Hydroxyacetamido)-1-(4-(trifluoromethoxy)phenyl)-1H-pyrazolo[3,4-b]pyridin-3-yl)methyl)acrylamide], the IC50 worked out at 45.5 nM at TEAD4, 18.5 nM on TEAD1, 130 nM against TEAD2 and 405 nM at TEAD3.

`C=CC(=O)NCc1nn(-c2ccc(OC(F)(F)F)cc2)c2nccc(-c3cnn(CCO)c3)c12` [Compound 35, N-((4-(1-(2-Hydroxyethyl)-1H-pyrazol-4-yl)-1-(4-(trifluoromethoxy)phenyl)-1H-pyrazolo[3,4-b]pyridin-3-yl)methyl)acrylamide]: the half-inhibitory concentration (IC50) at TEAD4 was 14 nM; on TEAD1 it was 17 nM; against TEAD2, 170 nM; on TEAD3, 640 nM.

On to `C=CC(=O)NCc1nn(-c2ccc(S(F)(F)(F)(F)F)cc2)c2cccc(CO)c12` [Compound 5, N-((4-(hydroxymethyl)-1-(4-(pentafluoro-λ^6-sulfanyl)phenyl)-1H-indazol-3-yl)methyl)acrylamide], for which the IC50 on TEAD4 came to 37 nM; on TEAD1, 17 nM; against TEAD2, 310 nM; on TEAD3, 270 nM.

Take `C=C(F)C(=O)N1CC(c2nn(-c3ccc(OC(F)(F)F)cc3)c3nccc(N4CC(O)(CO)C4)c23)C1` [Compound 75, 2-Fluoro-1-(3-(4-(3-hydroxy-3-(hydroxymethyl)azetidin-1-yl)-1-(4-(trifluoromethoxy)phenyl)-1H-pyrazolo[3,4-b]pyridin-3-yl)azetidin-1-yl)prop-2-en-1-one]: the IC50 at TEAD4 turned out to be 5.2 nM; on TEAD1, 45 nM; against TEAD2, 19 nM; at TEAD3, 1100 nM.

Regarding `C=CC(=O)NCc1nn(-c2ccc(OC(F)(F)F)cc2)c2nccc(N3CC(CO)C3)c12` [Compound 43, N-((4-(3-(hydroxymethyl)azetidin-1-yl)-1-(4-(trifluoromethoxy)phenyl)-1H-pyrazolo[3,4-b]pyridin-3-yl)methyl)acrylamide], the IC50 was determined as 4.6 nM at TEAD4, 13 nM on TEAD1, 54 nM on TEAD2 and 780 nM on TEAD3.

As for `C=C(F)C(=O)N1CC(c2nn(-c3ccc(OC(F)(F)F)cc3)c3nccc(N4CC(CO)(CO)C4)c23)C1` [Compound 142, 1-(3-(4-(3,3-Bis(hydroxymethyl)azetidin-1-yl)-1-(4-(trifluoromethoxy)phenyl)-1H-pyrazolo[3,4-b]pyridin-3-yl)azetidin-1-yl)-2-fluoroprop-2-en-1-one], the IC50 at TEAD4 worked out at 9 nM; at TEAD1, 150 nM; against TEAD2, 330 nM; on TEAD3, 50000 nM.

As to `C=C(F)C(=O)N1CC(c2nn(-c3ccc(OC(F)(F)F)cc3)c3nccc(N4CC([C@@H](O)CO)C4)c23)C1` [Compound 58, (R)-1-(3-(4-(3-(1,2-Dihydroxyethyl)azetidin-1-yl)-1-(4-(trifluoromethoxy)phenyl)-1H-pyrazolo[3,4-b]pyridin-3-yl)azetidin-1-yl)-2-fluoroprop-2-en-1-one], the IC50 at TEAD4 amounted to 9.6 nM; on TEAD1, 38 nM; on TEAD2, 70 nM; on TEAD3 it was 50000 nM.

Regarding `C=CC(=O)NCc1nn(-c2ccc(S(F)(F)(F)(F)F)cc2)c2cccnc12` [Compound 12, N-((1-(4-(pentafluoro-λ^6-sulfanyl)phenyl)-1H-pyrazolo[4,3-b]pyridin-3-yl)methyl)acrylamide], the IC50 was 43 nM at TEAD4, 48 nM on TEAD1, 2800 nM against TEAD2 and 630 nM at TEAD3.

Turning to `C=C(F)C(=O)N1CC(c2nn(-c3ccc(OC(F)(F)F)cc3)c3nccc(N4CC[C@H](O)C4=O)c23)C1` [Compound 82, (S)-1-(3-(1-(2-fluoroacryloyl)azetidin-3-yl)-1-(4-(trifluoromethoxy)phenyl)-1H-pyrazolo[3,4-b]pyridin-4-yl)-3-hydroxypyrrolidin-2-one], the IC50 at TEAD4 stood at 4.8 nM; on TEAD1 it was 31 nM; on TEAD2, 390 nM; at TEAD3, 270 nM.

In the case of `C=CC(=O)N(C)Cc1nn(-c2ccc(OC(F)(F)F)cc2)c2nccc([C@@H](O)CO)c12` [Compound 93, (R)-N-((4-(1,2-dihydroxyethyl)-1-(4-(trifluoromethoxy)phenyl)-1H-pyrazolo[3,4-b]pyridin-3-yl)methyl)-N-methylacrylamide], the half-maximal inhibitory concentration (IC50) on TEAD4 is 22 nM; at TEAD1, 170 nM; against TEAD2 it was 710 nM; at TEAD3 it was 570 nM.

On to `C=CC(=O)NCc1nn(-c2ccc(OC(F)(F)F)cc2)c2nccc([C@H]3COC(=O)O3)c12` [Compound 144, (S)-N-((4-(2-Oxo-1,3-dioxolan-4-yl)-1-(4-(trifluoromethoxy)phenyl)-1H-pyrazolo[3,4-b]pyridin-3-yl)methyl)acrylamide], for which the IC50 at TEAD4 came out at 55 nM; at TEAD1 it was 560 nM; against TEAD2, 150 nM; at TEAD3, 50000 nM.

As for `C=CC(=O)NCc1nn(-c2ccc(OC(F)(F)F)cc2)c2nccc(-c3cnn(CC(N)=O)c3)c12` [Compound 165, N-((4-(1-(2-amino-2-oxoethyl)-1H-pyrazol-4-yl)-1-(4-(trifluoromethoxy)phenyl)-1H-pyrazolo[3,4-b]pyridin-3-yl)methyl)acrylamide], the IC50 at TEAD4 was determined as 100 nM; at TEAD1, 120 nM; against TEAD2, 40 nM; at TEAD3, 50000 nM.

With `C=CC(=O)NCc1nn(-c2ccc(OC(F)(F)F)cc2)c2nccc(N3CC[C@@H](O)C3)c12` [Compound 47, (R)-N-((4-(3-hydroxypyrrolidin-1-yl)-1-(4-(trifluoromethoxy)phenyl)-1H-pyrazolo[3,4-b]pyridin-3-yl)methyl)acrylamide], the IC50 was 11 nM on TEAD4, 33 nM on TEAD1, 100 nM against TEAD2 and 2000 nM on TEAD3.

On to `C=CC(=O)NCc1nn(-c2ccc(OC(F)(F)F)cc2)c2nccc(N3CCC[C@H](O)C3)c12` (stereo in doubt) [Compound 33, N-((4-(3-hydroxypiperidin-1-yl)-1-(4-(trifluoromethoxy)phenyl)-1H-pyrazolo[3,4-b]pyridin-3-yl)methyl)acrylamide], for which the IC50 was 11 nM on TEAD4, 25 nM at TEAD1, 110 nM against TEAD2 and 17000 nM at TEAD3.

As for `C=CC(=O)NCc1nn(-c2ccc(S(F)(F)(F)(F)F)cc2)c2nccc(CO)c12` [Compound 87, N-((4-(Hydroxymethyl)-1-(4-(pentafluoro-λ^6-sulfanyl)phenyl)-1H-pyrazolo[3,4-b]pyridin-3-yl)methyl)acrylamide], the IC50 was 33 nM at TEAD4, 23 nM on TEAD1, 190 nM against TEAD2 and 520 nM on TEAD3.

With `C=CC(=O)NCc1nn(-c2ccc(OC(F)(F)F)cc2)c2nccc(C(C)(C)O)c12` [Compound 135, N-((4-(2-Hydroxypropan-2-yl)-1-(4-(trifluoromethoxy)phenyl)-1H-pyrazolo[3,4-b]pyridin-3-yl)methyl)acrylamide], the IC50 at TEAD4 came to 99 nM; on TEAD1, 390 nM; against TEAD2 it was 68 nM; on TEAD3 it was 34000 nM.

For `C=CC(=O)NCc1nn(-c2ccc(OC(F)(F)F)cc2)c2nccc(-c3cnn(CCN(C)C)c3)c12` [Compound 172, N-[[4-[1-[2-(dimethylamino)ethyl]pyrazol-4-yl]-1-[4-(trifluoromethoxy)phenyl]pyrazolo[3,4-b]pyridin-3-yl]methyl]prop-2-enamide], the concentration for half-maximal inhibition (IC50) at TEAD4 stood at 150 nM; on TEAD1, 470 nM; on TEAD2 it was 810 nM; on TEAD3 it was 19000 nM.

Regarding `C=C(F)C(=O)N1CC(c2nn(-c3ccc(OC(F)(F)F)cc3)c3nccc(N4CC(F)(C(N)=O)C4)c23)C1` [Compound 57, 3-Fluoro-1-(3-(1-(2-fluoroacryloyl)azetidin-3-yl)-1-(4-(trifluoromethoxy)phenyl)-1H-pyrazolo[3,4-b]pyridin-4-yl)azetidine-3-carboxamide], the half-inhibitory concentration (IC50) was 5.1 nM on TEAD4, 36 nM at TEAD1, 37 nM against TEAD2 and 350 nM on TEAD3.

Regarding `C=CC(=O)NCc1nn(-c2ccc(OC(F)(F)F)cc2)c2nccc(-c3cnn(CCS(C)(=O)=O)c3)c12` [Compound 168, N-((4-(1-(2-(methylsulfonyl)ethyl)-1H-pyrazol-4-yl)-1-(4-(trifluoromethoxy)phenyl)-1H-pyrazolo[3,4-b]pyridin-3-yl)methyl)acrylamide], the IC50 at TEAD4 was determined as 49 nM; on TEAD1, 140 nM; on TEAD2, 1100 nM; on TEAD3, 50000 nM.

Turning to `C=CC(=O)NCc1nn(-c2ccc(S(F)(F)(F)(F)F)cc2)c2ccccc12` [Compound 3, N-((1-(4-(pentafluoro-λ^6-sulfanyl)phenyl)-1H-indazol-3-yl)methyl)acrylamide], the IC50 at TEAD4 was determined as 7.9 nM; on TEAD1 it was 7 nM; against TEAD2 it was 250 nM; on TEAD3, 210 nM.
